Patent US4065356A, “Production of antibiotic FR-02A (efrotomycin) by streptomyces lactamdurans” (priority 1977, dated 1977)

Tests used:
Bacillus sp. 633 = experiment: Antibiotic Spectrum Profile, agar diffusion test; assay type: cell-based; conditions: 1 mg./ml., read-out: Diameters of Inhibition Zones
Experimental: To further characterize FR-02A in vitro, activity data for it was obtained using an antibiotic spectrum profile. The test involves applications of a droplet of antibiotic approximately 0.015 ml. on the surface of seeded complex agar plates. […] The results are reported in Table 1 in terms of mm. of inhibition zones.

[1] = tested on: Klebsiella pneumoniae (MB 1264); experiment: in vitro activity; assay type: cell-based
[2] = tested on: Streptococcus faecalis 753; experiment: Antibiotic Spectrum Profile, agar diffusion test; assay type: cell-based; conditions: Enterococcus faecalis, 1 mg./ml., read-out: Diameters of Inhibition Zones
[3] = tested on: Bordetella bronchiseptica; experiment: systemic infections produced by Bordetella bronchiseptica in mice; assay type: in vivo; conditions: orally
[4] = tested on: Salmonella gallinarum 1287; experiment: Antibiotic Spectrum Profile, agar diffusion test; assay type: cell-based; conditions: Salmonella enterica, 1 mg./ml., read-out: Diameters of Inhibition Zones
[5] = tested on: Pseudomonas aeruginosa (MB 3210); experiment: in vitro activity; assay type: cell-based
Bacillus subtilis 964 = experiment: Antibiotic Spectrum Profile, agar diffusion test; assay type: cell-based; conditions: 1 mg./ml., read-out: Diameters of Inhibition Zones
Proteus vulgaris 1012 = experiment: Antibiotic Spectrum Profile, agar diffusion test; assay type: cell-based; conditions: 1 mg./ml., read-out: Diameters of Inhibition Zones
[6] = tested on: Staphylococcus aureus 108; experiment: Antibiotic Spectrum Profile, agar diffusion test; assay type: cell-based; conditions: 1 mg./ml., read-out: Diameters of Inhibition Zones
Alcaligenes faecalis 10 = experiment: Antibiotic Spectrum Profile, agar diffusion test; assay type: cell-based; conditions: 1 mg./ml., read-out: Diameters of Inhibition Zones
M. hyorthinis = experiment: in vitro activity; assay type: cell-based
Ps. stutzeri 1231 = experiment: Antibiotic Spectrum Profile, agar diffusion test; assay type: cell-based; conditions: Stutzerimonas stutzeri, 1 mg./ml., read-out: Diameters of Inhibition Zones
[7] = tested on: Pseudomonas stutzeri (MB 2765); experiment: in vitro activity; assay type: cell-based
M. arthritidis = experiment: in vitro activity; assay type: cell-based
[8] = tested on: Staphylococcus aureus (MB 703); experiment: in vitro activity; assay type: cell-based
Sarcina lutea 1101 = experiment: Antibiotic Spectrum Profile, agar diffusion test; assay type: cell-based; conditions: Micrococcus luteus, 1 mg./ml., read-out: Diameters of Inhibition Zones
M. synoviae = experiment: in vitro activity; assay type: cell-based
[9] = tested on: Vibrio percolans American Type Culture Collection (ATCC 8461); experiment: disc-plate assay, zone of inhibition; assay type: cell-based
Experimental: Assays were run by the disc-plate procedure using 3/8 inch filter paper discs. The assay plates were prepared using Difco nutrient agar plus 2.0 g./l. Difco yeast extract at 10 ml. per plate. An overnight growth of the assay organism, Vibrio percolans American Type Culture Collection (ATCC 8461) in nutrient broth plus 0.2% yeast extract was diluted in sterile saline solution to a suspension having 40% transmittance at a wave length of 660 mμ. This suspension was added at 20 ml./liter of medium prior to pouring the plates.
The assay plates were held at 4° C. until used (5 day maximum). Following the application of the antibiotic-saturated assay discs the plates were incubated at 28° C. for a period of from 16 to 24 hours. Zones of inhibition were read as mm. diameter. They were used to determine relative potencies or, when compared with a purified reference standard, the potency in μg./ml. Assays of FR-02A in fermentation broths, mycelia and suspended nutrient matter separated from fermentation broths and in broths free of solids were performed after extracting the FR-02A into a suitable solvent. […] When such an assay is performed in a quantitative fashion, from 50 to 100 μg./ml. of antibiotic can be detected.

[10] = tested on: S. aureus (res. Erythromycin) 1909; experiment: Antibiotic Spectrum Profile, agar diffusion test; assay type: cell-based; conditions: Staphylococcus aureus, 1 mg./ml., read-out: Diameters of Inhibition Zones
[11] = toxicity studies in noninfected mice; assay type: in vivo; conditions: for Toxicity, Tolerated / Toxicity, Toxic: IP
Experimental: *Values in the table are expressed in mg./mouse. Both infections and
therapeutic doses of FR-02A were administered intraperitoneally. FR-02A
was administered at time of infection and again 6 hours later.
**Toxicity studies of FR-02A in noninfected mice indicate that two doses
of 2.5 mg./mouse, 6 hours apart are tolerated; but higher doses i.e. 5 to […]

M. gallisepticum = experiment: in vitro activity; assay type: cell-based
Proteus vulgaris = experiment: in vitro activity; assay type: cell-based
[12] = tested on: Corynebacterium pseudodiphtheriticum 261; experiment: Antibiotic Spectrum Profile, agar diffusion test; assay type: cell-based; conditions: 1 mg./ml., read-out: Diameters of Inhibition Zones
species of Pasteurella = experiment: in vitro activity; assay type: cell-based

Structure (SMILES): CC=CC=CC1OC(O)(C(CC)C(=O)NCC=CC=C(C)C(OC)C(C)C2OC(C=CC=CC=C(C)C(=O)c3c(O)ccn(C)c3=O)C(O)C2O)C(O)C(OC2OC(C)C(OC3OC(C)C(OC)C(O)C3OC)C(OC)C2O)C1(C)C (stereo not drawn) [FR-02A, efrotomycin]
- zone of inhibition at 1000 µg/mL (Bacillus sp. 633): 18 mm
- activity [1]: Activity was also found
- zone of inhibition at 1000 µg/mL [2]: 11 mm
- efficacy in systemic infections produced by Bordetella bronchiseptica [3]: orally effective
- zone of inhibition at 1000 µg/mL [4]: 13 mm
- activity [5]: Activity was also found
- zone of inhibition at 1000 µg/mL (Bacillus subtilis 964): 19 mm
- zone of inhibition at 1000 µg/mL (Proteus vulgaris 1012): 10 mm
- zone of inhibition at 1000 µg/mL [6]: 11 mm
- zone of inhibition at 1000 µg/mL (Alcaligenes faecalis 10): 19 mm
- in vitro activity (M. hyorthinis): effective
- zone of inhibition at 1000 µg/mL (Ps. stutzeri 1231): 10 mm
- activity [7]: Activity was also found
- in vitro activity (M. arthritidis): effective
- activity [8]: Activity was also found
- zone of inhibition at 1000 µg/mL (Sarcina lutea 1101): 28 mm
- in vitro activity (M. synoviae): effective
- zone of inhibition at 200 µg/mL ([9]; Comamonas terrigena, ATCC8461, 200 μg./ml., 3/8 inch discs, read-out: zones of inhibition): 16 mm
- activity ([9]; Vibrio percolans (ATCC 8461)): Activity was also found
- zone of inhibition at 1000 µg/mL [10]: 16 mm
- Toxicity, Tolerated ([11]; Table 2 line Proteus vulgaris): 5.0 mg./mouse
- Toxicity, Toxic ([11]; Table 2 line Proteus vulgaris): 5.0 mg./mouse
- Toxicity, Tolerated ([11]; Table 2 line Strep. pyogenes): 1.25 mg./mouse
- Toxicity, Toxic ([11]; Table 2 line Strep. pyogenes): 5.0 mg./mouse
- toxicity in vivo ([11]; in mice, in words): low toxicity
- tolerated dose ([11]; noninfected mice, two doses 6 hours apart): 2.5 mg./mouse
- in vitro activity (M. gallisepticum): effective
- in vitro activity (Proteus vulgaris): effective
- zone of inhibition at 1000 µg/mL [12]: 27 mm
- in vitro activity (species of Pasteurella): effective
